Data on 20 molecules can be found in patent US20230365563A1, “QUINAZOLINE COMPOUND AND APPLICATION THEREOF” (SHANGHAI PHARMACEUTICALS HOLDING CO., LTD., priority 2020, published 2023).

Where a name gives a salt, the structure may show the parent alone.

In this assay the target is T1, KRAS-G12D and SOS1 (Homo sapiens, UniProt P01116, G12D).
T1 construct: purchased
T1 sequence (P01116 1-188 isoform P01116-2 G12D): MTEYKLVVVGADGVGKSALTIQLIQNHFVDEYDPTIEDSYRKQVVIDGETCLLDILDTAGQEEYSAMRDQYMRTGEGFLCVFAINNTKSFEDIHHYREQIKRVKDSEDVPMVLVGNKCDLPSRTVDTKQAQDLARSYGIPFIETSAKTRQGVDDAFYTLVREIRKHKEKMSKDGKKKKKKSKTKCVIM
As to the kind of experiment: Inhibition of KRAS-G12D/SOS1 binding (Cisbio binding kit, 665/615 ratio), Effect Embodiment A. The conditions noted are these: read-out: GTP-KRAS-G12D:SOS1 IC50. The procedure, abridged: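 Test compounds were serially diluted 3-fold from the storage solution over 11 points and dispensed in duplicate wells at 1% final DMSO.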
`CN(C)C12CC(c3nc(N4CC5CCC(C4)N5)c4cc(Cl)c(-c5cc(O)cc6ccccc56)c(F)c4n3)(C1)C2` (single isomer, unassigned) [Compound 162a, 4-((S or R)-4-((1R,5S)-3,8-diazabicyclo[3.2.1]octan-3-yl)-6-chloro-2-(3-(dimethylamino)bicyclo[1.1.1]pentan-1-yl)-8-fluoroquinazolin-7-yl)naphthalen-2-ol dihydrochloride]: the IC50 came to 0.678 µM.

For the molecule `Oc1cc(-c2c(Cl)cc3c(N4CC5CCC(C4)N5)nc(OCC(F)CN4C5CCC4COC5)nc3c2F)c2ccccc2c1` (single isomer, unassigned) [Compound 179a, ((4R or 4S)-4-(2-((2R or 2S)-3-(3-oxa-8-azabicyclo[3.2.1]octan-8-yl)-2-fluoropropoxy)-4-((1R,5S)-3,8-diazabicyclo[3.2.1]octan-3-yl)-6-chloro-8-fluoroquinazolin-7-yl)naphthalen-2-ol diformate], the half-inhibitory concentration (IC50) amounted to 0.276 µM.

In the case of `CCCN(C)CC1(COc2nc(N3C[C@H]4CC[C@@H](C3)N4)c3cc(Cl)c(-c4cc(O)cc5ccccc45)c(F)c3n2)CC1` (single isomer, unassigned) [Compound 185, (R or S)-4-(4-((1R,5S)-3,8-diazabicyclo[3.2.1]octan-3-yl)-6-chloro-8-fluoro-2-((1-((methyl(propyl)amino)methyl)cyclopropyl)methoxy)quinazolin-7-yl)naphthalen-2-ol diformate], the IC50 came out at 0.387 µM.

As for `CN1CCC[C@H]1C1(Oc2nc(N3CC4CCC(C3)N4)c3cc(Cl)c(-c4cc(O)cc5ccccc45)c(F)c3n2)CC1` (single isomer, unassigned) [Compound 189, 4-((R or S)-4-((1R,5S)-3,8-diazabicyclo[3.2.1]octan-3-yl)-6-chloro-8-fluoro-2-(1-((S)-1-methylpyrrolidin-2-yl)cyclopropoxy)quinazolin-7-yl)naphthalen-2-ol diformate], the half-maximal inhibitory concentration (IC50) came to 8.32 µM.

Consider `CN1CCC[C@H]1COc1nc(N2CC3CCC(C2)N3)c2cc(Cl)c(-c3c(F)c(O)cc4ccccc34)c(F)c2n1` (single isomer, unassigned) [Compound 195a, (R or S)-4-(4-((1R,5S)-3,8-diazabicyclo[3.2.1]octan-3-yl)-6-chloro-8-fluoro-2-((S)-1-methylpyrrolidin-2-yl)methoxy)quinazolin-7-yl)-3-fluoronaphthalen-2-ol diformate], for which the IC50 turned out to be 8.77 µM.

In the case of `Oc1cc(Cl)c(C2CC2)c(-c2c(Cl)cc3c(N4CC5CCC(C4)N5)nc(OCCCN4C5CCC4COC5)nc3c2F)c1` (single isomer, unassigned) [Compound 197b, 3-((7S or 7R)-2-(3-(3-oxa-8-azabicyclo[3.2.1]octan-8-yl)propoxy)-4-((1R,5S)-3,8-diazabicyclo[3.2.1]octan-3-yl)-6-chloro-8-fluoroquinazolin-7-yl)-5-chloro-4-cyclopropylphenol formate], the IC50 was 2.71 µM.

For `O=S1(=O)CC2CCC(C1)N2CCCOc1nc(N2CC3CCC(C2)N3)c2cc(Cl)c(-c3cc(O)cc4ccccc34)c(F)c2n1` (single isomer, unassigned) [Compound 212, 8-(3-((S or R)-4-((1R,5S)-3,8-diazabicyclo[3.2.1]octan-3-yl)-6-chloro-8-fluoro-7-(3-hydroxynaphthalen-1-yl)quinazolin-2-yl)oxy)propyl)-3-thio-8-azabicyclo[3.2.1]octane-3,3-dioxide formate], the IC50 was 0.556 µM.

For `N=[S+]1([O-])CC2CCC(C1)N2CCCOc1nc(N2CC3CCC(C2)N3)c2cc(Cl)c(-c3cc(O)cc4ccccc34)c(F)c2n1` (single isomer, unassigned) [Compound 213a, (1R,3S or 3R,5S)-8-(3-((4-((1R,5S)-3,8-diazabicyclo[3.2.1]octan-3-yl)-6-chloro-8-fluoro-7-(3-hydroxynaphthalen-1-yl)quinazolin-2-yl)oxy)propyl)-3-imino-3λ^6-thia-8-azabicyclo[3.2.1]octane 3-oxide formate], the IC50 came out at 0.514 µM.

For `N=[S+]1([O-])CC2CCC(C1)N2CCCOc1nc(N2CC3CCC(C2)N3)c2cc(Cl)c(-c3cc(O)cc4ccccc34)c(F)c2n1` (single isomer, unassigned) [Compound 213b, (1R,3R or 3S,5S)-8-(3-((4-((1R,5S)-3,8-diazabicyclo[3.2.1]octan-3-yl)-6-chloro-8-fluoro-7-(3-hydroxynaphthalen-1-yl)quinazolin-2-yl)oxy)propyl)-3-imino-3λ^6-thia-8-azabicyclo[3.2.1]octane 3-oxide formate], the IC50 came out at 0.673 µM.

Regarding `Oc1cc(-c2c(Cl)cc3c(N4CC5CCC(C4)N5)nc(OC[C@@]45CCCN4C[C@H](F)C5)nc3c2F)c2c(F)c(F)ccc2c1` (single isomer, unassigned) [Compound 214b, 4-(R or S)-4-((1R,5S)-3,8-diazabicyclo[3.2.1]octane-3-yl)-6-chloro-8-fluoro-2-((2R,7aS)-2-fluorotetrahydro-1H-pyrrolidin-7a(5H)-yl) methoxy) quinazolin-7-yl)-5,6-difluoronaphthalen-2-ol diformate], the half-inhibitory concentration (IC50) was 2.66 µM.

For the molecule `CCc1c(F)ccc2cc(O)cc(-c3c(F)cc4c(N5CC6CCC(C5)N6)nc(OCCCN5C6CCC5COC6)nc4c3F)c12` (single isomer, unassigned) [Compound 215b, 4-((7R or 7S)-2-(3-(3-oxa-8-azabicyclo[3.2.1]octan-8-yl)propoxy)-4-((1R,5S)-3,8-diazabicyclo[3.2.1]octan-3-yl)-6,8-difluoroquinazolin-7-yl)-5-ethyl-6-fluoronaphthalen-2-ol diformate], the IC50 was 1.58 µM.

With `C[C@@H](COc1nc(N2CC3CCC(C2)N3)c2cc(Cl)c(-c3cc(O)cc4ccccc34)c(F)c2n1)CN1CC(C)(C)OC(C)(C)C1` (single isomer, unassigned) [Compound 217, 4-((S or R)-4-((1R,5S)-3,8-diazabicyclo[3.2.1]octan-3-yl)-6-chloro-8-fluoro-2-((R)-2-methyl-3-(2,2,6,6-tetramethylmorpholinyl)propoxy)quinazolin-7-yl)naphthalen-2-ol formate], the half-inhibitory concentration (IC50) was found to be 0.191 µM.

For `Oc1cc(-c2c(Cl)cc3c(N4CC5CCC(C4)N5)nc(OCC(CN4C5CCC4COC5)C(F)(F)F)nc3c2F)c2ccccc2c1` (single isomer, unassigned) [Compound 218b, 4-((7S or 7R)-2-((2R or 2S)-2-((3-oxa-8-azabicyclo[3.2.1]octan-8-yl)methyl)-3,3,3-trifluoropropoxy)-4-((1R,5S)-3,8-diazabicyclo[3.2.1]octan-3-yl)-6-chloro-8-fluoroquinazolin-7-yl)naphthalen-2-ol formate], the IC50 came to 0.25 µM.

`CC1(C)CN(CCCOc2nc(N3CC4CCC(C3)N4)c3cc(Cl)c(-c4cc(O)cc5ccccc45)c(F)c3n2)CC(C)(C)O1` (single isomer, unassigned) [Compound 222, 4-((S or R)-4-((1R,5S)-3,8-diazabicyclo[3.2.1]octan-3-yl)-6-chloro-8-fluoro-2-(3-(2,2,6,6-tetramethylmorpholinyl)propoxy)quinazolin-7-yl)naphthalen-2-ol formate]: the IC50 is 0.581 µM.

Turning to `CCc1c(F)ccc2cc(O)cc(-c3c(Cl)cc4c(N5CC6CCC(C5)N6)nc(OC[C@H](C)CN5C6CCC5COC6)nc4c3F)c12` (single isomer, unassigned) [Compound 233a, 4-((7S or 7R)-2-((2R)-3-(3-oxa-8-azabicyclo[3.2.1]octan-8-yl)-2-methylpropoxy)-4-((1R,5S)-3,8-diazabicyclo[3.2.1]octan-3-yl)-6-chloro-8-fluoroquinazolin-7-yl)-5-ethyl-6-fluoronaphthalen-2-ol formate], the 50% inhibitory concentration (IC50) worked out at 3.28 µM.

As for `CCc1c(F)ccc2cc(O)cc(-c3c(F)cc4c(N5CC6CCC(C5)N6)nc(OCCCN5C[C@@H](C)O[C@@H](C)C5)nc4c3F)c12` (single isomer, unassigned) [Compound 250b, (R or S)-4-(4-((1R,5S)-3,8-diazacyclo[3.2.1]octan-3-yl)-2-(3-((2R,6S)-2,6-dimethylmorpholinyl)propoxy)-6,8-difluoroquinazolin-7-yl)-5-ethyl-6-fluoronaphthalen-2-ol formate], the IC50 came to 1.63 µM.

Take `C#Cc1c(F)ccc2cc(O)cc(-c3c(Cl)cc4c(N5CC6CCC(C5)N6)nc(OCCCN5C6CCC5COC6)nc4c3F)c12` (single isomer, unassigned) [Compound 255a, (4S or 4R)-4-(2-(3-(3-oxa-8-azabicyclo[3.2.1]octan-8-yl)propoxy)-4-(1R,5S)-3,8-diazabicyclo[3.2.1]octan-3-yl)-6-chloro-8-fluoroquinazolin-7-yl)-5-ethynyl-6-fluoronaphthalen-2-ol diformate]: the IC50 was determined as 5.12 µM.

For `CCc1cccc2cc(O)cc(-c3c(F)cc4c(N5CC6CCC(C5)N6)nc(OCCCN5C6CCC5COC6)nc4c3F)c12` (single isomer, unassigned) [Compound 271b, 4-((7R or 7S)-2-(3-(3-oxa-8-azabicyclo[3.2.1]octan-8-yl)propoxy)-4-((1R,5S)-3,8-diazabicyclo[3.2.1]octan-3-yl)-6,8-difluoroquinazolin-7-yl)-5-ethylnaphthalen-2-ol diformate], the IC50 turned out to be 9.41 µM.

As to `C#Cc1cccc2cc(O)cc(-c3c(F)cc4c(N5CC6CCC(C5)N6)nc(OCCCN5C6CCC5COC6)nc4c3F)c12` (single isomer, unassigned) [Compound 273b, 4-((7R or 7S)-2-(3-(3-oxa-8-azabicyclo[3.2.1]octan-8-yl)propoxy)-4-((1R,5S)-3,8-diazabicyclo[3.2.1]octan-3-yl)-6,8-difluoroquinazolin-7-yl)-5-ethynylnaphthalen-2-ol diformate], the half-inhibitory concentration (IC50) is 1.85 µM.

Take `N#Cc1cccc2cc(O)cc(-c3c(F)cc4c(N5CC6CCC(C5)N6)nc(OCCCN5C6CCC5COC6)nc4c3F)c12` (single isomer, unassigned) [Compound 278b, 8-((7R or 7S)-2-(3-(3-oxa-8-azabicyclo[3.2.1]octan-8-yl)propoxy)-4-((1R,5S)-3,8-diazabicyclo[3.2.1]octan-3-yl)-6,8-difluoroquinazolin-7-yl)-6-hydroxy-1-naphthonitrile diformate]: the IC50 stood at 2.48 µM.

As usually defined, the IC50 is the concentration needed to halve the response being measured.
